Data published in the NIST ThermoML archive (doi:10.1021/acs.jced.5b00251).
Numbers after ± are expanded uncertainties.

Assay: refractive index (other wavelength) (dimensionless)
Conditions: 101 kPa, Liquid, Standard Abbe refractometry

Structure (SMILES) | refractive index (293.15 K, Wavelength=436.1 nm) | refractive index (293.15 K, Wavelength=513.9 nm) | refractive index (293.15 K, Wavelength=589.3 nm) | refractive index (293.15 K, Wavelength=633.2 nm) | refractive index (293.15 K, Wavelength=657.2 nm) | refractive index (298.15 K, Wavelength=436.1 nm) | refractive index (298.15 K, Wavelength=513.9 nm) | refractive index (298.15 K, Wavelength=589.3 nm) | refractive index (298.15 K, Wavelength=633.2 nm) | refractive index (298.15 K, Wavelength=657.2 nm) | refractive index (303.15 K, Wavelength=436.1 nm) | refractive index (303.15 K, Wavelength=513.9 nm) | refractive index (303.15 K, Wavelength=589.3 nm) | refractive index (303.15 K, Wavelength=633.2 nm) | refractive index (303.15 K, Wavelength=657.2 nm) | refractive index (308.15 K, Wavelength=436.1 nm) | refractive index (308.15 K, Wavelength=513.9 nm) | refractive index (308.15 K, Wavelength=589.3 nm) | refractive index (308.15 K, Wavelength=633.2 nm) | refractive index (308.15 K, Wavelength=657.2 nm) | other results
c1ccc2c(c1)CCCC2 [1,2,3,4-tetrahydronaphthalene] | 1.56232 ± 0.00078 | 1.54872 ± 0.001 | 1.5412 ± 0.00082 | 1.53808 ± 0.00078 | 1.53694 ± 0.00075 | 1.5598 ± 0.00078 | 1.54625 ± 0.00077 | 1.53875 ± 0.00076 | 1.53565 ± 0.00075 | 1.53452 ± 0.00075 | 1.55719 ± 0.00078 | 1.54373 ± 0.00076 | 1.53628 ± 0.00075 | 1.53321 ± 0.00075 | 1.53208 ± 0.00074 | 1.55471 ± 0.00077 | 1.5413 ± 0.00076 | 1.53389 ± 0.00075 | 1.53083 ± 0.00074 | 1.52971 ± 0.00074 | refractive index (313.15 K, Wavelength=436.1 nm): 1.55219 ± 0.00077; refractive index (313.15 K, Wavelength=513.9 nm): 1.53886 ± 0.00076; refractive index (313.15 K, Wavelength=589.3 nm): 1.53148 ± 0.00075; refractive index (313.15 K, Wavelength=633.2 nm): 1.52844 ± 0.00073; refractive index (313.15 K, Wavelength=657.2 nm): 1.52732 ± 0.00074; refractive index (318.15 K, Wavelength=436.1 nm): 1.54974 ± 0.00077; refractive index (318.15 K, Wavelength=513.9 nm): 1.53647 ± 0.00059; refractive index (318.15 K, Wavelength=589.3 nm): 1.52912 ± 0.00067; refractive index (318.15 K, Wavelength=633.2 nm): 1.52629 ± 0.0007; refractive index (318.15 K, Wavelength=657.2 nm): 1.52495 ± 0.00074
CC(C)Cc1ccccc1 [(2-methylpropyl)benzene] | 1.50429 ± 0.00078 | 1.4927 ± 0.001 | 1.48654 ± 0.0008 | 1.48377 ± 0.00078 | 1.48286 ± 0.00076 | 1.50172 ± 0.00078 | 1.49023 ± 0.00076 | 1.48406 ± 0.00076 | 1.48132 ± 0.00075 | 1.48035 ± 0.00075 | 1.49916 ± 0.00078 | 1.48772 ± 0.00077 | 1.4815 ± 0.00076 | 1.47888 ± 0.00075 | 1.47798 ± 0.00074 | 1.49659 ± 0.00078 | 1.48521 ± 0.00077 | 1.47904 ± 0.00075 | 1.47643 ± 0.00075 | 1.47555 ± 0.00075 | refractive index (313.15 K, Wavelength=436.1 nm): 1.494 ± 0.00078; refractive index (313.15 K, Wavelength=513.9 nm): 1.48268 ± 0.00076; refractive index (313.15 K, Wavelength=589.3 nm): 1.47657 ± 0.00076; refractive index (313.15 K, Wavelength=633.2 nm): 1.47397 ± 0.00075; refractive index (313.15 K, Wavelength=657.2 nm): 1.47309 ± 0.00075; refractive index (318.15 K, Wavelength=436.1 nm): 1.49143 ± 0.00078; refractive index (318.15 K, Wavelength=513.9 nm): 1.48023 ± 0.0006; refractive index (318.15 K, Wavelength=589.3 nm): 1.47409 ± 0.0007; refractive index (318.15 K, Wavelength=633.2 nm): 1.47151 ± 0.00072; refractive index (318.15 K, Wavelength=657.2 nm): 1.47063 ± 0.00075
CCCCCCCCCCCC [dodecane] | 1.43105 ± 0.00072 | 1.42506 ± 0.00082 | 1.42171 ± 0.00074 | 1.42031 ± 0.00073 | 1.41993 ± 0.00071 | 1.42886 ± 0.00072 | 1.42291 ± 0.00071 | 1.41957 ± 0.00071 | 1.41815 ± 0.00071 | 1.41777 ± 0.00071 | 1.42666 ± 0.00072 | 1.42074 ± 0.00072 | 1.41742 ± 0.00071 | 1.41601 ± 0.00071 | 1.41564 ± 0.00071 | 1.42445 ± 0.00072 | 1.41857 ± 0.00072 | 1.41527 ± 0.00071 | 1.41385 ± 0.00071 | 1.4135 ± 0.00071 | refractive index (313.15 K, Wavelength=436.1 nm): 1.42223 ± 0.00072; refractive index (313.15 K, Wavelength=513.9 nm): 1.41638 ± 0.00072; refractive index (313.15 K, Wavelength=589.3 nm): 1.41309 ± 0.00071; refractive index (313.15 K, Wavelength=633.2 nm): 1.41171 ± 0.00072; refractive index (313.15 K, Wavelength=657.2 nm): 1.41134 ± 0.00071; refractive index (318.15 K, Wavelength=436.1 nm): 1.42001 ± 0.00072; refractive index (318.15 K, Wavelength=513.9 nm): 1.41418 ± 0.00063; refractive index (318.15 K, Wavelength=589.3 nm): 1.41093 ± 0.00069; refractive index (318.15 K, Wavelength=633.2 nm): 1.40943 ± 0.0007; refractive index (318.15 K, Wavelength=657.2 nm): 1.4092 ± 0.00071
